Test: xn = mol fraction of the nth substance listed
Details: 101 kPa

CCCCCCCCOS(=O)(=O)[O-].CC[n+]1ccn(C)c1 + O
Details	electrical conductivity [S/m]	viscosity [mPa·s]
268.15 K, x2 = 0.7822	0.277	–
268.15 K, x2 = 0.8104	0.331	–
268.15 K, x2 = 0.8384	0.406	–
273.15 K, x2 = 0.7822	0.355	–
273.15 K, x2 = 0.8104	0.417	–
273.15 K, x2 = 0.8384	0.529	–
278.15 K, x2 = 0.7822	0.447	–
278.15 K, x2 = 0.8104	0.522	–
278.15 K, x2 = 0.8384	0.653	–
283.15 K, x2 = 0.7822	0.552	–
283.15 K, x2 = 0.8104	0.642	–
283.15 K, x2 = 0.8237	0.677	–
283.15 K, x2 = 0.8384	0.799	–
288.15 K, x2 = 0.8104	0.772	–
288.15 K, x2 = 0.8237	0.819	–
288.15 K, x2 = 0.8384	0.956	–
290.15 K, x2 = 0.8384	1.02	–
291.15 K, x2 = 0.8237	0.91	–
291.15 K, x2 = 0.8384	1.05	–
292.15 K, x2 = 0.8104	0.89	–
293.15 K, x2 = 0.7822	0.801	–
293.15 K, x2 = 0.8104	0.921	–
293.15 K, x2 = 0.8237	0.971	–
293.15 K, x2 = 0.8384	1.13	–
294.15 K, x2 = 0.8104	0.951	–
296.15 K, x2 = 0.8237	–	73.9
297.15 K, x2 = 0.7822	–	76.7
297.15 K, x2 = 0.8384	–	62.9
298.15 K, x2 = 0.7822	0.949	72.6
298.15 K, x2 = 0.8104	1.07	67.2
298.15 K, x2 = 0.8384	1.31	59.6
299.15 K, x2 = 0.8237	–	60.2
300.15 K, x2 = 0.8237	–	57.1
303.15 K, x2 = 0.7822	1.11	55.9
303.15 K, x2 = 0.8104	1.25	51.7
308.15 K, x2 = 0.7822	–	43.7
308.15 K, x2 = 0.8104	–	40.4
308.15 K, x2 = 0.8237	–	38.33
308.15 K, x2 = 0.8384	–	36.02
313.15 K, x2 = 0.7822	1.47	34.66
313.15 K, x2 = 0.8237	1.73	–
313.15 K, x2 = 0.8384	1.98	28.64
318.15 K, x2 = 0.8237	–	24.55
323.15 K, x2 = 0.7822	1.89	22.8
323.15 K, x2 = 0.8104	2.09	21.03
323.15 K, x2 = 0.8384	2.55	18.8
328.15 K, x2 = 0.8237	–	16.51
333.15 K, x2 = 0.8104	2.66	14.42
333.15 K, x2 = 0.8384	3.13	12.91
338.15 K, x2 = 0.8237	–	11.57
343.15 K, x2 = 0.8104	3.17	10.28
343.15 K, x2 = 0.8237	3.28	–
343.15 K, x2 = 0.8384	3.76	9.26
353.15 K, x2 = 0.8237	3.77	–
358.15 K, x2 = 0.8237	3.99	–
363.15 K, x2 = 0.8237	4.35	–

Reference: a compilation of properties of binary mixtures (doi:10.1016/j.jct.2017.05.012)
